Measured values as given in PubChem BioAssay AID248 (DTP/NCI, 2004).
Toxic doses and inconclusive results are not listed. No stated cut-off is given here; in the data, active means T/C of 150% or more; inactive means T/C below 125%.

System: L1210 leukemia ip in BDF1 mice, survival T/C
Test: NCI In Vivo Anticancer Drug Screen. Data for tumor model L1210 Leukemia (intraperitoneal) in B6D2F1 (BDF1) mice
Details: endpoint: mean survival time, higher = longer survival
In short: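 Each compound was tested against a transplantable tumor grown in mice. The endpoint was survival, with treated animals benchmarked against vehicle controls as a simple ratio.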

[1] = dose: 100.0 mg/kg/injection, schedule: Q04DX003 (ip), vehicle: saline with Tween-80
[2] = dose: 200.0 mg/kg/injection, schedule: Q04DX003 (ip), vehicle: saline with Tween-80
[3] = dose: 400.0 mg/kg/injection, schedule: Q04DX003 (ip), vehicle: saline with Tween-80
[4] = dose: 50.0 mg/kg/injection, schedule: Q01DX001 (ip), vehicle: saline
[5] = dose: 100.0 mg/kg/injection, schedule: Q01DX001 (ip), vehicle: saline
[6] = dose: 200.0 mg/kg/injection, schedule: Q01DX001 (ip), vehicle: saline
[7] = dose: 400.0 mg/kg/injection, schedule: Q01DX001 (ip), vehicle: saline
[8] = dose: 12.5 mg/kg/injection, schedule: Q04DX003 (ip), vehicle: Klucel (hydroxypropylcellulose) (HPC)
[9] = dose: 25.0 mg/kg/injection, schedule: Q04DX003 (ip), vehicle: Klucel (hydroxypropylcellulose) (HPC)
[10] = dose: 50.0 mg/kg/injection, schedule: Q04DX003 (ip), vehicle: Klucel (hydroxypropylcellulose) (HPC)
[11] = dose: 100.0 mg/kg/injection, schedule: Q04DX003 (ip), vehicle: Klucel (hydroxypropylcellulose) (HPC)
[12] = dose: 200.0 mg/kg/injection, schedule: Q04DX003 (ip), vehicle: Klucel (hydroxypropylcellulose) (HPC)
[13] = dose: 400.0 mg/kg/injection, schedule: Q04DX003 (ip), vehicle: Klucel (hydroxypropylcellulose) (HPC)
[14] = dose: 100.0 mg/kg/injection, schedule: Q04DX002 (ip), vehicle: Klucel (hydroxypropylcellulose) (HPC)
[15] = dose: 200.0 mg/kg/injection, schedule: Q04DX002 (ip), vehicle: Klucel (hydroxypropylcellulose) (HPC)
[16] = dose: 400.0 mg/kg/injection, schedule: Q04DX002 (ip), vehicle: Klucel (hydroxypropylcellulose) (HPC)

Measured: T/C

CCOC(=O)C(C(=O)OCC)C(=O)c1cccc2ccc3ccccc3c12
inactive: [1] 96 % of control | [2] 96 % of control | [3] 97 % of control

NCc1nc2ccccc2[nH]1
inactive: [4] 101 % of control | [5] 103 % of control | [6] 95 % of control | [7] 95 % of control

Cc1c([N+](=O)[O-])cc(C(C)(C)C)c(OC(=O)Nc2ccccc2)c1[N+](=O)[O-]
inactive: [8] 93 % of control | [9] 106 % of control | [10] 95 % of control

COc1ccc(N=C(N)N=C(N)N)cc1
inactive: [4] 111 % of control | [5] 104 % of control | dose: 100.0 mg/kg/injection, schedule: Q01DX009 (ip), vehicle: saline 91 % of control | [6] 95 % of control | dose: 200.0 mg/kg/injection, schedule: Q01DX009 (ip), vehicle: saline 92 % of control

COc1ccc(Cl)cc1NC(=O)COc1ccc(Cl)cc1
inactive: dose: 100.0 mg/kg/injection, schedule: Q01DX009 (ip), vehicle: Klucel (hydroxypropylcellulose) (HPC) 96 % of control | [11] 102 % of control | dose: 200.0 mg/kg/injection, schedule: Q01DX009 (ip), vehicle: Klucel (hydroxypropylcellulose) (HPC) 107 % of control | [12] 122 % of control | dose: 400.0 mg/kg/injection, schedule: Q01DX009 (ip), vehicle: Klucel (hydroxypropylcellulose) (HPC) 96 % of control | [13] 90 % of control

CC(C)N1C(=O)c2cccc3c(Br)ccc(c23)C1=O
inactive: [11] 96 % of control | [12] 97 % of control

O=C(CCCC(=O)N/N=C/c1cc(Cl)ccc1[N+](=O)[O-])N/N=C\c1cc(Cl)ccc1[N+](=O)[O-]
inactive: [4] 98 % of control | [5] 90 % of control | [6] 95 % of control | [7] 98 % of control

O=C(O)c1c(Cl)c(Cl)c(Cl)c(Cl)c1C(=O)c1ccccc1
inactive: dose: 75.0 mg/kg/injection, schedule: Q01DX001 (ip), vehicle: saline 109 % of control | dose: 150.0 mg/kg/injection, schedule: Q01DX001 (ip), vehicle: saline 113 % of control | dose: 300.0 mg/kg/injection, schedule: Q01DX001 (ip), vehicle: saline 101 % of control

CN(Cc1ccccc1)/C(N)=N/N
inactive: dose: 37.5 mg/kg/injection, schedule: Q04DX003 (ip), vehicle: saline 94 % of control | dose: 75.0 mg/kg/injection, schedule: Q04DX003 (ip), vehicle: saline 111 % of control | dose: 150.0 mg/kg/injection, schedule: Q04DX003 (ip), vehicle: saline 97 % of control

CCCCCCCCCCCCCCCCCC(=O)[O][Pb]([CH3])([CH3])[CH3]
inactive: dose: 25.0 mg/kg/injection, schedule: Q04DX002 (ip), vehicle: Klucel (hydroxypropylcellulose) (HPC) 97 % of control

NC(=O)N/N=C/c1[nH]c(=S)[nH]c(=O)c1Cc1ccccc1
inactive: [1] 101 % of control | [2] 94 % of control | [3] 97 % of control

COc1ccc(C2CC(O)C3CCC2C3)cc1 (centres undefined)
inactive: [14] 93 % of control | [15] 97 % of control | [16] 93 % of control

CCCCCCCCCCOC(=O)C[n+]1ccc(C(N)=O)cc1
inactive: dose: 12.5 mg/kg/injection, schedule: Q04DX003 (ip), vehicle: saline 98 % of control | dose: 25.0 mg/kg/injection, schedule: Q04DX003 (ip), vehicle: saline 91 % of control | dose: 50.0 mg/kg/injection, schedule: Q04DX003 (ip), vehicle: saline 91 % of control

CC(=O)ONCCc1ccc(S(=O)(=O)F)cc1
inactive: [11] 105 % of control | [12] 96 % of control | [13] 98 % of control

O=C(Oc1ccc(Cl)cc1Cl)c1ccc([N+](=O)[O-])cc1
inactive: [14] 93 % of control | [15] 97 % of control | [16] 87 % of control

C=C(Br)CN(CC)CC
inactive: dose: 12.5 mg/kg/injection, schedule: Q01DX009 (ip), vehicle: Klucel (hydroxypropylcellulose) (HPC) 90 % of control | [8] 100 % of control | dose: 25.0 mg/kg/injection, schedule: Q01DX009 (ip), vehicle: Klucel (hydroxypropylcellulose) (HPC) 91 % of control | [9] 107 % of control | [10] 96 % of control
